The target of assay [1] is Avi-humanTEAD4^217-434 / Cy5 labeled humanYAP^60-100 (Homo sapiens (Human), UniProt Q15561). Put plainly: In-vitro biochemical TR-FRET assay (TEAD4/YAP). It counts as binding. As to conditions: 1 h at room temperature. In general terms: TR-FRET usually uses a lanthanide donor and a delayed reading to cut background.
Assay [2] concerns YAP-dependent transcription in NCI-H2052 Tet-On shYAP_2371 pLenti6 MCAT_Luc cells. Put plainly: YAP reporter gene activity assay (MCAT-Luc), NCI-H2052. The conditions noted are these: Homo sapiens, 24 hrs. Type of assay: cell-based.
Assay [3] concerns YAP-dependent transcription in SF268-MCAT_Luc_dox-i-shYAPLevy (Clone 13) cells. The assay can be described thus: YAP reporter gene activity assay (MCAT-Luc), SF268. As to conditions: Homo sapiens, SF-268; SF268 MCAT_Luc, 24 hrs. Type of assay: cell-based. For orientation: Reporter assays use an easily measured gene product as a stand-in for the process of interest.
Assay [4] has as its system MKN-45/Ubc-luc cells (unspecific inhibition of luciferase expression or activity). The assay can be described thus: Reporter gene assay specificity control (Ubc-Luc), MKN-45. It counts as cell-based. The conditions noted are these: Homo sapiens; MKN-45/Ubc-luc specificity control, 24 hrs. The method in brief: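 MKN-45 cells stably carrying a ubiquitin C promoter–firefly luciferase construct, treated the day after seeding with eleven 2-fold compound dilutions (0.1% DMSO final) for 24 hrs at 37° C. Luminescence read 5 min after Steady Glo addition; cell-free background subtracted, as a control for nonspecific luciferase inhibition.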

Assay [5] relates to NCI-H2052 Tet-On shYAP_2371 pLenti6 MCAT_Luc cells. Put plainly: Proliferation assay (resazurin/AlamarBlue), NCI-H2052. As to conditions: Homo sapiens; NCI-H2052, 72 hours. It counts as cell-based. Background: The colour change of resazurin is a common sign of viable cells or microbes.
Assay [6] concerns SF268-MCAT_Luc_dox-i-shYAPLevy (Clone 13) cells. The assay can be described thus: Proliferation assay (resazurin/AlamarBlue), SF268. The conditions noted are these: Homo sapiens, SF-268; SF268, 72 hours. It counts as cell-based.
In a further assay the test system is MKN-45/Ubc-luc cells. The assay can be described thus: Proliferation assay (resazurin/AlamarBlue), MKN-45. Type of assay: cell-based. As to conditions: Homo sapiens; MKN-45, 72 hours. The method in brief: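 MKN-45 cells carrying constitutive Ubc-driven luciferase reporter, treated the day after seeding with eleven 2-fold dilutions (0.1% DMSO) for 72 h at 37 °C. Viability by resazurin, referenced to day-0 plate; GI50 from % growth (100 none, 0 stasis, −100 kill) and residual viability at top concentration.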

The target in assay [7] is TEAD1-GFP in HEK293A cells (Homo sapiens (Human), UniProt P28347). Put plainly: TEAD1 protein abundance flow cytometry assay in HEK293A. The conditions noted are these: HEK293A TEAD1-GFP-CHYSEL-mCherry sensor cells, 24 h, GFP signal by flow cytometry. Type of assay: cell-based. The protocol:
Degradation of TEAD1 was measured in HEK293A cells (Invitrogen R70507) expressing TEAD1-GFP and mCherry from a stably integrated bicistronic TEAD1-GFP-CHYSEL-mCherry construct. Reduction of the GFP signal measured by flow cytometry served as readout for TEAD1 degradation after degrader treatment.
Stable HEK293A sensor cells were maintained in complete growth medium (DMEM high Glucose+10% FCS+1% L-Glutamine+1% NEAA+1% NaPyr.+4 μg/mL blasticidin) with passaging performed twice per week. On Day 0, stable HEK293A sensor cells were seeded at 5,000 cells/well in a 96-well microtiter plate in 100 μL complete medium. On Day 1, cells were treated in duplicate with 10-point 1:3 dilution series of compound using the HP D300 Digital Dispenser (Tecan). DMSO concentrations were normalized across the plate to 0.1%. On Day 2, after 24 h of incubation at 37° C., treatment media was discarded, cells rinsed with 100 μL/well PBS and then detached using 40 μL trypsin/well for 5 min. Trypsin was neutralized with 100 μL/well PBS+20% FCS).
Flow cytometry was performed on the samples using the CytoFlex S (Beckman Coulter). Cell identification was then performed using forward (FSC) vs. side scatter (SSC) plots. Single cell discrimination was performed using SSC-Width (SSC-W) vs. SSC-Height (SSCH) plots. Median GFP values for 2,500 single cells were used to determine TEAD1 levels. Median GFP values from HEK293A were used as a background signal and thus defining 0% TEAD1 signal. Median GFP values from DMSO treated HEK293A TEAD1-GFP CHYSEL-mCherry were used to define 100%
TEAD1 signal for subsequent DC50 curves (concentration at 50% TAED1 degradation). GFP and RFP were read in the channels called FITC and PE, respectively. Concentration response curves plotting relative reduction of the GFP signal (measured by flow cytometry) versus 10 compound concentrations (starting concentration 10 μM, 3 fold dilution steps) of the compounds allowed generation of DC50 values.

Chain of TEAD1-GFP in HEK293A cells (P28347 whole entry): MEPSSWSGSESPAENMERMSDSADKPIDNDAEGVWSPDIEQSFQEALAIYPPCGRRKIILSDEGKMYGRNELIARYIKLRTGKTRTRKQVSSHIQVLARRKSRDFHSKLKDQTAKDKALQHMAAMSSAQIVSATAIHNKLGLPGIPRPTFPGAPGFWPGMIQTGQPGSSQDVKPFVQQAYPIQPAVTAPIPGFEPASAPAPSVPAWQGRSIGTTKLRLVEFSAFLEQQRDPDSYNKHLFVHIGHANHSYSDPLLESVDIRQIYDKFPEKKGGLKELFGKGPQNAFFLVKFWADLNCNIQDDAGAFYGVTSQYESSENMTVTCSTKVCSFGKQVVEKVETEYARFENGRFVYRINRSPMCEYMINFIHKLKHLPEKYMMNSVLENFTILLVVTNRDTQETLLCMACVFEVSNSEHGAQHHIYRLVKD
Chain of Avi-humanTEAD4^217-434 / Cy5 labeled humanYAP^60-100 (Q15561 217-434): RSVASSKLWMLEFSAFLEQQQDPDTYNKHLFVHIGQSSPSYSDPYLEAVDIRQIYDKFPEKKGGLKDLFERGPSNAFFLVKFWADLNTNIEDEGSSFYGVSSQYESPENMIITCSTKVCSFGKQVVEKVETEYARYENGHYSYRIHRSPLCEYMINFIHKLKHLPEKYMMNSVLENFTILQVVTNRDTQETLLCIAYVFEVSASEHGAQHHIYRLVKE

With `COc1ccc(C(=O)N2CCC(CN3CCN(C(=O)[C@H]4CC[C@H](NC[C@]5(c6ccccc6)Oc6cc(F)c(Cl)c(-c7c(C(N)=O)ccc(OC)c7F)c6[C@@H]5C)CC4)CC3)CC2)cc1N1CCC(=O)NC1=O` (atropisomer, axis not shown) [Example 17, 2-((2S,3S,4S)-5-chloro-2-((((1r,4S)-4-(4-((1-(3-(2,4-dioxotetrahydropyrimidin-1(2H)-yl)-4-methoxybenzoyl)piperidin-4-yl)methyl)piperazine-1-carbonyl)cyclohexyl)amino)methyl)-6-fluoro-3-methyl-2-phenyl-2,3-dihydrobenzofuran-4-yl)-3-fluoro-4-methoxybenzamide], the IC50 was 1 nM in assay [1], 15 nM in assay [2], 0.85 nM in assay [3] and above 2000 nM in assay [4]. Moreover, the GI50 in assay [5] was 62 nM; in assay [6], 49 nM; in the assay on MKN-45/Ubc-luc cells it was above 2000 nM. The same molecule had a DC50 in assay [7] of 4 nM.
Turning to `COc1ccc(C(N)=O)c(-c2c(Cl)c(F)cc3c2[C@H](C)[C@@](CN[C@H]2CC[C@H](C(=O)N4CCC(C5CCN(C(=O)COc6ccc(C)c(N7CCC(=O)NC7=O)c6)CC5)CC4)CC2)(c2ccccc2)O3)c1F` (atropisomer, axis not shown) [Example 19, 2-((2S,3S,4S)-5-chloro-2-((((1r,4S)-4-(1′-(2-(3-(2,4-dioxotetrahydropyrimidin-1(2H)-yl)-4-methylphenoxy)acetyl)-[4,4′-bipiperidine]-1-carbonyl)cyclohexyl)amino)methyl)-6-fluoro-3-methyl-2-phenyl-2,3-dihydrobenzofuran-4-yl)-3-fluoro-4-methoxybenzamide], the IC50 in assay [1] is 2.1 nM; in assay [2] it was 4.6 nM; in assay [3] it was 0.41 nM; in assay [4] it was above 2000 nM. In addition, the figures for the GI50 (in assay [5]; in assay [6]; in the assay with MKN-45/Ubc-luc cells) were 12 nM, 29 nM and above 2000 nM, respectively. This molecule gave a DC50 in assay [7] of 0.5 nM.
Regarding `COc1ccc(C(N)=O)c(-c2c(Cl)c(F)cc3c2[C@H](C)[C@@](CN[C@H]2CC[C@H](C(=O)N4CCC(OC5CCN(C(=O)COc6ccc(C)c(N7CCC(=O)NC7=O)c6)CC5)CC4)CC2)(c2ccccc2)O3)c1F` (atropisomer, axis not shown) [Example 20, 2-((2S,3S,4S)-5-chloro-2-((((1r,4S)-4-(4-((1-(2-(3-(2,4-dioxotetrahydropyrimidin-1(2H)-yl)-4-methylphenoxy)acetyl)piperidin-4-yl)oxy)piperidine-1-carbonyl)cyclohexyl)amino)methyl)-6-fluoro-3-methyl-2-phenyl-2,3-dihydrobenzofuran-4-yl)-3-fluoro-4-methoxybenzamide], the IC50 in assay [1] was 1.4 nM; in assay [2], 3.9 nM; in assay [3] it was 0.22 nM; in assay [4] it was above 20000 nM. Besides, the GI50 in assay [5] is 19 nM; in assay [6] it was 18 nM; with MKN-45/Ubc-luc cells, above 20000 nM. The molecule also gave a DC50 in assay [7] of 0.4 nM.
`COc1ccc(C(N)=O)c(-c2c(Cl)c(F)cc3c2[C@H](C)[C@@](CN[C@H]2CC[C@H](C(=O)N4CCC(CC5CCN(C(=O)COc6ccc(C)c(N7CCC(=O)NC7=O)c6)CC5)CC4)CC2)(c2ccccc2)O3)c1F` (atropisomer, axis not shown) [Example 21, 2-((2S,3S,4S)-5-chloro-2-((((1r,4S)-4-(4-((1-(2-(3-(2,4-dioxotetrahydropyrimidin-1(2H)-yl)-4-methylphenoxy)acetyl)piperidin-4-yl)methyl)piperidine-1-carbonyl)cyclohexyl)amino)methyl)-6-fluoro-3-methyl-2-phenyl-2,3-dihydrobenzofuran-4-yl)-3-fluoro-4-methoxybenzamide]: the IC50 in assay [1] is 1.6 nM; in assay [2], 1.4 nM; in assay [3], 0.3 nM; in assay [4], above 2000 nM. Moreover, the GI50 in assay [5] is 4.3 nM; in assay [6], 9.4 nM; in the assay with MKN-45/Ubc-luc cells, above 2000 nM. In assay [7], this molecule came in with a DC50 of 0.3 nM.
Turning to `COc1ccc(C(N)=O)c(-c2c(Cl)c(F)cc3c2[C@H](C)[C@@](CN[C@H]2CC[C@H](C(=O)N4CCN(CC5CCN(C(=O)COc6ccc(C)c(N7CCC(=O)NC7=O)c6)CC5)CC4)CC2)(c2ccccc2)O3)c1F` (atropisomer, axis not shown) [Example 22, 2-((2S,3S,4S)-5-chloro-2-((((1r,4S)-4-(4-((1-(2-(3-(2,4-dioxotetrahydropyrimidin-1(2H)-yl)-4-methylphenoxy)acetyl)piperidin-4-yl)methyl)piperazine-1-carbonyl)cyclohexyl)amino)methyl)-6-fluoro-3-methyl-2-phenyl-2,3-dihydrobenzofuran-4-yl)-3-fluoro-4-methoxybenzamide], the IC50 in assay [1] is 1 nM; in assay [2], 2 nM; in assay [3] it was 0.18 nM; in assay [4], above 2000 nM. Further, the GI50 in assay [5] was 9.5 nM; in assay [6], 9.5 nM; with MKN-45/Ubc-luc cells it was above 2000 nM. The DC50 in assay [7] came out at 0.4 nM.
Turning to `COc1ccc(C(N)=O)c(-c2c(Cl)c(F)cc3c2[C@H](C)[C@@](CN[C@H]2CC[C@H](C(=O)NCCCCCCCNC(=O)COc4ccc(C)c(N5CCC(=O)NC5=O)c4)CC2)(c2ccccc2)O3)c1F` (atropisomer, axis not shown) [Example 23, 2-((2S,3S,4S)-5-chloro-2-((((1r,4S)-4-((7-(2-(3-(2,4-dioxotetrahydropyrimidin-1(2H)-yl)-4-methylphenoxy)acetamido)heptyl)carbamoyl)cyclohexyl)amino)methyl)-6-fluoro-3-methyl-2-phenyl-2,3-dihydrobenzofuran-4-yl)-3-fluoro-4-methoxybenzamide], the IC50 in assay [1] is below 1 nM; in assay [2], 13 nM; in assay [3] it was 1.4 nM; in assay [4], above 2000 nM. The GI50 was 35 nM in assay [5], 74 nM in assay [6] and above 2000 nM in the assay on MKN-45/Ubc-luc cells. The molecule also gave a DC50 in assay [7] of 3 nM.
Consider `COc1ccc(C(N)=O)c(-c2c(Cl)c(F)cc3c2[C@H](C)[C@@](CN[C@H]2CC[C@H](C(=O)N4CCC(CC5CCN(C(=O)c6ccc(Cl)c(N7CCC(=O)NC7=O)c6)CC5)CC4)CC2)(c2ccccc2)O3)c1F` (atropisomer, axis not shown) [Example 24, 2-((2S,3S,4S)-5-chloro-2-((((1r,4S)-4-(4-((1-(4-chloro-3-(2,4-dioxotetrahydropyrimidin-1(2H)-yl)benzoyl)piperidin-4-yl)methyl)piperidine-1-carbonyl)cyclohexyl)amino)methyl)-6-fluoro-3-methyl-2-phenyl-2,3-dihydrobenzofuran-4-yl)-3-fluoro-4-methoxybenzamide], for which the IC50 was 3.4 nM in assay [1], 1 nM in assay [2], 0.2 nM in assay [3] and above 2000 nM in assay [4]. Further, the GI50 is 3.5 nM in assay [5], 6.2 nM in assay [6] and above 2000 nM with MKN-45/Ubc-luc cells. The molecule also displayed a DC50 in assay [7] below 0.3 nM.

For orientation: IC50 means the point on the concentration scale where inhibition reaches its midpoint. What is called GI50 is the concentration at which growth is held to half of that of the control. A low value points to more potent growth inhibition.
